In US8546579B2, “Bicycloheteroaryl compounds as P2X7 modulators and uses thereof” (Evotec (US) Inc., priority 2006, dated 2013):

The compounds below were run against T1, P2X7 receptor (Homo sapiens, UniProt Q99572) (assay: IL-1β release assay in differentiated THP-1 cells stimulated with BzATP (Example 9)). Conditions: 0.1 μM compound; differentiated THP-1 cells, BzATP 250 uM; '*' class symbols; read-out: IL-1β % Inhib. (asterisk classes, 0.1 μM).
T1 construct: host or cells: THP-1 cells differentiated with LPS and IFN-γ
T1 sequence (Q99572 1-595): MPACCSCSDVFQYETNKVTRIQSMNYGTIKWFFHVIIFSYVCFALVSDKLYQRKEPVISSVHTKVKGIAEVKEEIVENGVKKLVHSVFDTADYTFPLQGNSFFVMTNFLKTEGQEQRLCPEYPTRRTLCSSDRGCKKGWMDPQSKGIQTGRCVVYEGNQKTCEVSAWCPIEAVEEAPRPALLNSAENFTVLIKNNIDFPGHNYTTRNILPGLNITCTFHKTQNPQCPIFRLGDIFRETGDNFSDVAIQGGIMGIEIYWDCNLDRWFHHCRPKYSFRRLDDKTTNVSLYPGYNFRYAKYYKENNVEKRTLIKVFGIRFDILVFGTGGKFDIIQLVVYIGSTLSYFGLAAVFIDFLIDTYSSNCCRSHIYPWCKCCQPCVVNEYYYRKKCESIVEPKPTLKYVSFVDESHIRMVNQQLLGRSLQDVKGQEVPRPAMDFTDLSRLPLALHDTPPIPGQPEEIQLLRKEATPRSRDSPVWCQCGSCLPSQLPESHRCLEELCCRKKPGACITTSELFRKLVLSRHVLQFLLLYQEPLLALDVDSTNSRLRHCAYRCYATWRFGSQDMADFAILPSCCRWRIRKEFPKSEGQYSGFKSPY
Assay type: cell-based
Parameters: inhibition: dose or concentration left out as unconfirmed
Procedure: THP-1 cells (ATCC Cat # 285-IF-100) are plated in 96 well plates at a concentration of 200,000 cells per well and allowed to differentiate in RPMI-1640 media (ATCC Cat # 30-2001) containing 10% FBS, 100 IU/mL penicillin, 100 ug/mL streptomycin, 100 ng/mL LPS and 100 ng/mL IFN-γ for 16 hours. Following differentiation, the cells are treated for an additional 2 hours in RPMI-1640 media containing 100 IU/mL penicillin, 100 ug/mL streptomycin and fresh LPS at 100 ng/mL. The cells are then pretreated for 30 minutes with the compound of interest at the appropriate concentration in RPMI media containing 100 IU/mL penicillin, 100 ug/mL streptomycin. Following the pretreatment 2′,3′-O-(4-benzoylbenzoyl)-adenosine 5′-triphosphate (Sigma Aldrich Cat # B6396) is added to a final concentration of 250 uM and the cells are incubated for an additional 45 minutes. 30 uL of cell supernatant is then collected and IL-1β levels determined via ELISA (R&D systems Cat. # HSLB50) according to manufacturer's recommendations using the Tecan Safire plate reader. Background adjusted IL-1β levels of drug treated and non-treated cells are used to calculate the percent inhibition.
The compounds set forth in Table 1 were tested for activity in a cellular model as described herein. Specifically, cells were pretreated with differing amounts of the compound under test and released IL-1β determined as in Example 9, above. Measurements were made and IC50 values, presented in Table 2, below, were determined by fitting the data to a four parameter logistic equation using GraphPad Prism software (GraphPad Software, Inc). The equation may be expressed by the following formula: Y=Bottom+(Top−Bottom)/(1+10^((Log EC50−X)*HillSlope)) Where X is the logarithm of concentration, Y is the response and Y starts at Bottom and goes to Top with a sigmoid shape.

Row | Structure (SMILES) | inhibition at 0.1 µM [%]
1 | COc1ccc(C(=O)Nc2cccc3c(=O)n(CCN4CCOCC4)ccc23)c(C)c1 [Compound 1039] | 0 to 25

Same assay, conditions: 0.1 μM compound; differentiated THP-1 cells, BzATP 250 uM; symbols * to ****; read-out: IL-1β % Inhib. (asterisk symbols: at 0.1 μM)

Row | Structure (SMILES) | inhibition at 0.1 µM [%]
2 | COc1ccccc1CCC(=O)Nc1cccc2c(=O)n(CCN3CCOCC3)ccc12 [Compound 1201] | 0 to 25
3 | CC(C(=O)Nc1cccc2c(=O)n(Cc3cccnc3)ccc12)c1ccccc1 (stereo not drawn) [Compound 1347] | 26 to 50

Same assay, conditions: 0.3 μM compound; differentiated THP-1 cells, BzATP 250 uM; "+" class symbols; read-out: IL-1β % Inhib. @ 0.3 μM

Row | Structure (SMILES) | inhibition at 0.3 µM [%]
4 | CC(c1ccccn1)n1ccc2c(NC(=O)Cc3ccc(C(F)(F)F)cc3)cccc2c1=O (stereo not drawn) [Compound 1634] | 51 to 75
5 | CC(C(N)=O)n1ccc2c(NC(=O)C3COc4cc(C(C)(C)C)ccc4O3)cccc2c1=O (stereo not drawn) [Compound 1622] | 0 to 25

Same assay, conditions: 0.3 μM compound; differentiated THP-1 cells, BzATP 250 uM; '+' class symbols; read-out: IL-1β % Inhib. @ 0.3 μM

Row | Structure (SMILES) | inhibition at 0.3 µM [%]
6 | Cc1cc(C(=O)Nc2cccc3c(=O)n(Cc4cccnc4)ccc23)ccc1Cl [Compound 1081] | 0 to 25
7 | COCCn1ccc2c(NC(=O)c3ccc(Cl)c(C)c3)cccc2c1=O [Compound 1071] | 0 to 25
8 | Cc1cccc(C(=O)Nc2cccc3c(=O)n(CCN(C)C)ccc23)c1C [Compound 1140] | 0 to 25
9 | COc1ccc(C(=O)Nc2cccc3c(=O)n(CCN4CCOCC4)ccc23)cc1Cl [Compound 1043] | 0 to 25
10 | O=C(Nc1cccc2c(=O)n(CC3CCOCC3)ccc12)c1cc2cc(Cl)ccc2o1 [Compound 1131] | 0 to 25
11 | Cc1cc(C(=O)Nc2cccc3c(=O)n(CC4CCOCC4)ccc23)ccc1F [Compound 1124] | 0 to 25
12 | CN(C)CCn1ccc2c(NC(=O)Cc3csc4ccccc34)cccc2c1=O [Compound 1171] | 0 to 25
13 | Cc1ccc(C)c(CC(=O)Nc2cccc3c(=O)n(CC(C)(C)C)ccc23)c1 [Compound 1051] | 0 to 25
14 | Cc1cccc(C(=O)Nc2cccc3c(=O)n(CCN(C)C)ccc23)c1 [Compound 1145] | 0 to 25
15 | CN(C)CCn1ccc2c(NC(=O)CCc3ccccc3Cl)cccc2c1=O [Compound 1037] | 0 to 25
16 | CN(C)CCn1ccc2c(NC(=O)Cc3ccccc3F)cccc2c1=O [Compound 1154] | 0 to 25
17 | COc1ccccc1CC(=O)Nc1cccc2c(=O)n(CC3CCOCC3)ccc12 [Compound 1099] | 0 to 25
18 | Cc1ccc(Cl)cc1C(=O)Nc1cccc2c(=O)n(CCN(C)C)ccc12 [Compound 1180] | 0 to 25
19 | Cc1ccc(CCC(=O)Nc2cccc3c(=O)n(CCN(C)C)ccc23)c(C)c1 [Compound 1185] | 0 to 25
20 | CC(=O)OCCn1ccc2c(NC(=O)CC3(O)CCCCCC3)cccc2c1=O [Compound 1015] | ≥ 76
21 | CN(C)CCn1ccc2c(NC(=O)Cc3cccc4ccccc34)cccc2c1=O [Compound 1152] | 0 to 25

Same assay, conditions: 0.3 μM compound; differentiated THP-1 cells, BzATP 250 uM; symbols + to ++++; read-out: IL-1β % Inhib. @ 0.3 μM

Row | Structure (SMILES) | inhibition at 0.3 µM [%]
22 | COc1cc(CC(=O)Nc2cccc3c(=O)n(CC(C)(C)C)ccc23)cc(OC)c1 [Compound 1266] | 0 to 25
23 | CC(C(=O)Nc1cccc2c(=O)n(CCN(C)C)ccc12)c1ccc(Cl)cc1 (stereo not drawn) [Compound 1391] | ≥ 76
24 | Cc1ccccc1CC(=O)Nc1cccc2c(=O)n(C)ccc12 [Compound 1296] | 0 to 25
25 | O=C(Cc1ccccc1Cl)Nc1cccc2c(=O)n(CCN3CCOCC3)ccc12 [Compound 1205] | 0 to 25
26 | CN(C)CCn1ccc2c(NC(=O)Cc3ccc(Cl)c(Cl)c3)cccc2c1=O [Compound 1386] | 51 to 75
27 | O=C(CCCc1ccccc1)Nc1cccc2c(=O)n(Cc3cccnc3)ccc12 [Compound 1357] | 0 to 25
28 | Cc1ccc(Cl)c(C(=O)Nc2cccc3c(=O)n(CCN4CCOCC4)ccc23)c1 [Compound 1235] | 0 to 25
29 | O=C(CC1CCCCCC1)Nc1cccc2c(=O)n(CC3CCOCC3)ccc12 [Compound 1373, 2-Cycloheptyl-N-[1-oxo-2-(tetrahydro-pyran-4-ylmethyl)-1,2-dihydro-isoquinolin-5-yl]-acetamide] | ≥ 76
30 | COCCn1ccc2c(NC(=O)Cc3ccc(Cl)c(Cl)c3)cccc2c1=O [Compound 1392] | 51 to 75
31 | CCOc1ccc(CC(=O)Nc2cccc3c(=O)n(CCOC)ccc23)cc1 [Compound 1317] | 0 to 25
32 | CC(=O)OCCn1ccc2c(NC(=O)CCc3ccc(S(C)(=O)=O)cc3)cccc2c1=O [Compound 1383] | 0 to 25
33 | COCCn1ccc2c(NC(=O)c3cc(C)c(OC)c(C)c3)cccc2c1=O [Compound 1323] | 0 to 25
34 | COCCn1ccc2c(NC(=O)CCc3ccc(Cl)cc3)cccc2c1=O [Compound 1335] | 0 to 25
35 | COCCn1ccc2c(NC(=O)CCc3ccc(OC)cc3)cccc2c1=O [Compound 1311] | 0 to 25

Same assay, conditions: THP-1; read-out: IL-1β % Inhib.

Row | Structure (SMILES) | inhibition [%]
36 | Cc1cccc(CC(=O)Nc2cccc3c(=O)n(Cc4ccc(OC(F)(F)F)cc4)ccc23)c1 [Compound 1582] | 0 to 25
37 | COc1ccc(CC(=O)Nc2cccc3c(=O)n(CC4CCN(C)CC4)ccc23)cc1OC [Compound 1473] | 0 to 25
38 | O=C(CC1CC2CC[C@H]1C2)Nc1cccc2c(=O)n(Cc3ccc(OC(F)(F)F)cc3)ccc12 (stereo partly drawn) [Compound 1593] | 0 to 25
39 | COCCn1ccc2c(NC(=O)c3cccc(C)c3)cccc2c1=O [Compound 1428] | 0 to 25
40 | O=C(Nc1cccc2c(=O)n(CCCN3CCCC3=O)ccc12)c1cc(Cl)cc(Cl)c1 [Compound 1511] | 0 to 25
41 | O=C(Nc1cccc2c(=O)n(Cc3cccnc3)ccc12)c1cccc2ccccc12 [Compound 1447] | 0 to 25
42 | Cc1ccccc1C(=O)Nc1cccc2c(=O)n(Cc3ccc(OC(F)(F)F)cc3)ccc12 [Compound 1562] | 0 to 25
43 | O=C(Nc1cccc2c(=O)n(Cc3ccc(OC(F)(F)F)cc3)ccc12)c1ccccc1Cl [Compound 1560] | 0 to 25
44 | COCCn1ccc2c(NC(=O)c3ccc4ccccc4c3)cccc2c1=O [Compound 1434] | 0 to 25
45 | Cc1cc(C)cc(CC(=O)Nc2cccc3c(=O)n(CC4CCN(C)CC4)ccc23)c1 [Compound 1482] | 26 to 50
46 | COc1ccc(C(=O)Nc2cccc3c(=O)n(C)ccc23)cc1C [Compound 1424] | 0 to 25
47 | COc1c(C)cc(C(=O)Nc2cccc3c(=O)n(CCCN4CCCC4=O)ccc23)cc1C [Compound 1529] | 0 to 25
48 | COc1cccc(CC(=O)Nc2cccc3c(=O)n(Cc4ccc(OC(F)(F)F)cc4)ccc23)c1 [Compound 1580] | 0 to 25
49 | CCOc1ccc(C(=O)Nc2cccc3c(=O)n(CCN4CCOCC4)ccc23)c(O)c1 [Compound 1403] | 0 to 25
50 | Cc1cccc(CC(=O)Nc2cccc3c(=O)n(CCCN4CCCC4=O)ccc23)c1 [Compound 1521] | 0 to 25
51 | COc1ccc(C(=O)Nc2cccc3c(=O)n(CC4CCN(C)CC4)ccc23)cc1C [Compound 1490] | 0 to 25
52 | O=C(Nc1cccc2c(=O)n(Cc3cccnc3)ccc12)c1ccc2ccccc2c1 [Compound 1448] | 0 to 25
53 | O=C(Nc1cccc2c(=O)n(CCCN3CCCC3=O)ccc12)c1ccc(-c2ccccc2)cc1 [Compound 1515] | 0 to 25
54 | COc1ccc(OC)c(CC(=O)Nc2cccc3c(=O)n(C)ccc23)c1 [Compound 1422] | 0 to 25
55 | CC(C)(C)c1ccc(C(=O)Nc2cccc3c(=O)n(CCCN4CCCC4=O)ccc23)cc1 [Compound 1516] | 0 to 25

Same assay, conditions: THP-1 cells, BzATP-stimulated IL-1β release, four parameter logistic fit

Row | Structure (SMILES) | IC50 [nM]
56 | CC(C(=O)Nc1cccc2c(=O)n(CCN(C)C)ccc12)c1ccc(Cl)cc1 (stereo not drawn) [Compound 1391] | 45.7
57 | CN(C)CCn1ccc2c(NC(=O)Cc3ccc(Cl)c(Cl)c3)cccc2c1=O [Compound 1386] | 238
58 | CC(c1ccccn1)n1ccc2c(NC(=O)Cc3ccc(C(F)(F)F)cc3)cccc2c1=O (stereo not drawn) [Compound 1634] | 262
59 | O=C(CC1CCCCCC1)Nc1cccc2c(=O)n(CC3CCOCC3)ccc12 [Compound 1373, 2-Cycloheptyl-N-[1-oxo-2-(tetrahydro-pyran-4-ylmethyl)-1,2-dihydro-isoquinolin-5-yl]-acetamide] | 72.1
60 | CC(C(N)=O)n1ccc2c(NC(=O)C3COc4cc(C(C)(C)C)ccc4O3)cccc2c1=O (stereo not drawn) [Compound 1622] | > 1000
61 | COCCn1ccc2c(NC(=O)Cc3ccc(Cl)c(Cl)c3)cccc2c1=O [Compound 1392] | 123
62 | CC(=O)OCCn1ccc2c(NC(=O)CCc3ccc(S(C)(=O)=O)cc3)cccc2c1=O [Compound 1383] | > 1000
63 | CC(=O)OCCn1ccc2c(NC(=O)CC3(O)CCCCCC3)cccc2c1=O [Compound 1015] | 171
